Test results reported in patent US8309545B2, “Benzofuran potassium channel blockers and uses thereof” (Bionomics Limited, priority 2006, dated 2012).

Target: T1, human Kv1.3 ion channel (Homo sapiens, UniProt P22001)
T1 construct: Human Jurkat cells (which endogenously express hKv1.3) were used in place of rat L929 cells; endogenous in cells; host or cells: Human Jurkat cells
Experiment: Inhibition of Kv1.3 currents, planar patch clamp in Jurkat cells
Type: cell-based
Settings: Human Jurkat cells (endogenous hKv1.3), averaged dose response data from 3 or more cells
Procedure: Potency of compounds to inhibit the human Kv1.3 ion channel were determined as follows:
EC50 values for inhibition of Kv1.3 currents were determined by the method according to Schmitz et al (2005) Molecular Pharmacology 68, 1254-1270 with the following differences: • 1. Human Jurkat cells (which endogenously express hKv1.3) were used in place of rat L929 cells. • 2. All electrophysiology was performed using planar patch clamp (Port-A-Patch, Nanion Technologies Gmbh, Munich) in contrast to conventional patch clamp. • 3. EC50 values shown were determined from averaged dose response data obtained from 3 or more cells.

T1 sequence (P22001 whole entry): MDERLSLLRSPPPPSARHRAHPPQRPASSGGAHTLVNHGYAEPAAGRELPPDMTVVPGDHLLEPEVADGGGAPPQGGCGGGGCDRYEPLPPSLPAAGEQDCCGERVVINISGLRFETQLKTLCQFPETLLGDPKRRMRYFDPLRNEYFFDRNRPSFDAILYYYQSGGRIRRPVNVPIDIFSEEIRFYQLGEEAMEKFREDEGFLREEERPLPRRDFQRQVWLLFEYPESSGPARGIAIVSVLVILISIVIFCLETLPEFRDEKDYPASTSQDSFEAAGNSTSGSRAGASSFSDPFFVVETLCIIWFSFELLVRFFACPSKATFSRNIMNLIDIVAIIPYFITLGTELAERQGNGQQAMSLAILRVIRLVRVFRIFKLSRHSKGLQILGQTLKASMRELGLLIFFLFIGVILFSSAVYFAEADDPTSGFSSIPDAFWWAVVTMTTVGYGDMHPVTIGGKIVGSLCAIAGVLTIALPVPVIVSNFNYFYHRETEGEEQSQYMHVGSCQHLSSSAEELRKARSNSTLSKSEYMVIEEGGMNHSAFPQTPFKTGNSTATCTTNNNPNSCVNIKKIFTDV

## CC(=O)c1c(OCCCn2ccnc2)c(OCCCc2ccccc2)c2occc2c1C [Example 29, 5-Acetyl-6-(3-imidazol-1-yl-propoxy)-4-methyl-7-(3-phenylpropoxy)-benzofuran]
  EC50: 0.136 µM

## COc1c(C(C)=O)c(OCCCS(=O)(=O)c2ccccc2)c(OC)c2occc12 [Example 10, 5-Acetyl-4,7-dimethoxy-6-(3-(benzenesulfonyl)propoxy)benzofuran]
  EC50: 1.51 µM

## CC(=O)c1c(C)c2c(c(CCCCc3ccccc3)c1OCCN1CCOCC1)OCC2 [Example 68, 1-[4-Methyl-6-(2-morpholin-4-yl-ethoxy)-7-(4-phenyl-butyl)-2,3-dihydro-benzofuran-5-yl]-ethanone]
  EC50: 0.02 µM

## CC(=O)c1c(OCCN2CCOCC2)c(OCC[C@@H](C)c2ccccc2)c2occc2c1C [Example 51, 1-[4-Methyl-6-(2-morpholin-4-yl-ethoxy)-7-(3-phenyl-butoxy)-benzofuran-5-yl]-ethanone]
  EC50: 0.018 µM

## CC(=O)c1c(OCCN2CCOCC2)c(OC[C@H]2O[C@@H]2c2ccccc2)c2occc2c1C [Example 63, 1-[4-Methyl-6-(2-morpholin-4-yl-ethoxy)-7-(2R,3R-3-phenyl-oxiranylmethoxy)-benzofuran-5-yl]-ethanone]
  EC50: 0.6 µM

## CCOC(=O)CC(=O)c1c(OCCN2CCOCC2)cc2occc2c1OCCCCOc1ccccc1 [Example 24, 3-[6-(2-Morpholin-4-ylethoxy)-4-(4-phenoxybutoxy)benzofuran-5-yl]-3-oxo-propionic acid ethyl ester]
  EC50: 0.59 µM

## CC(=O)c1c(OCCN2CCOCC2)c(OCC#Cc2ccccc2)c2occc2c1C [Example 60c, 1-[4-Methyl-6-(2-morpholin-4-yl-ethoxy)-7-(3-phenyl-prop-2-ynyloxy)-benzofuran-5-yl]-ethanone]
  EC50: 0.331 µM

## COc1c2occc2c(C)c2c(=O)cc(C)oc12 [4 a)]
  EC50: 0.79 µM

## COc1c(C(C)=O)c(OCCCOc2ccccc2)c(OC)c2occc12 [6 b)]
  EC50: 0.72 µM

## CC(=O)c1c(OCCN2CCOCC2)cc2occc2c1OCCCCOc1ccccc1 [23 d)]
  EC50: 0.174 µM

## CC(=O)c1c(C)c2c(c(OCCCc3ccccc3)c1OCCN1CCOCC1)OCC2 [Example 65, 5-Acetyl-6-(2-morpholinoethoxy)-4-methyl-7-(3-phenylpropoxy)-2,3-dihydrobenzofuran]
  EC50: 0.2 µM

## COc1c(C(C)=O)c(OCCn2ccnc2)c(OCCCc2ccccc2)c2occc12 [Example 17, 5-Acetyl-6-(2-imidazol-1-ylethoxy)-4-methoxy-7-(3-phenylpropoxy)benzofuran]
  EC50: 0.081 µM

## CC(=O)c1c(OCCN2CCCCC2)c(OCCCc2ccccc2)c2occc2c1C [Example 33, 1-[4-Methyl-7-(3-phenyl-propoxy)-6-(2-piperidin-1-yl-ethoxy)-benzofuran-5-yl]-ethanone]
  EC50: 0.343 µM

## CC(=O)c1c(OCCCC#N)c(OCCCc2ccccc2)c2occc2c1C [Example 54a, 5-Acetyl-6-(3-cyanopropoxy)-4-methyl-7-(3-phenylpropoxy)benzofuran]
  EC50: 0.16 µM

## CC(=O)c1c(OCCN2CCOCC2)c(OC(C)CCc2ccccc2)c2occc2c1C (stereo not shown) [Example 57b, 1-[4-Methyl-7-(1-RS-methyl-3-phenyl-propoxy)-6-(2-morpholin-4-yl-ethoxy)-benzofuran-5-yl]-ethanone]
  EC50: 0.159 µM

## CC(=O)c1c(OCCCCn2ccnc2)c(OCCCc2ccccc2)c2occc2c1C [Example 30, 5-Acetyl-6-(4-imidazol-1-yl-butoxy)-4-methyl-7-(3-phenylpropoxy)-benzofuran]
  EC50: 0.12 µM

## CC(=O)c1c(O)c(OCCC(C)c2ccccc2)c2occc2c1C (stereo not shown) [Example 50a, 1-[6-Hydroxy-4-methyl-7-(3-RS-phenylbutoxy)-benzofuran-5-yl]-ethanone]
  EC50: 0.423 µM

## CC(=O)c1c(OCCN2CCCC2)c(OCCCc2ccccc2)c2occc2c1C [Example 34, 1-[4-Methyl-7-(3-phenyl-propoxy)-6-(2-pyrrolidin-1-yl-ethoxy)-benzofuran-5-yl]-ethanone]
  EC50: 0.223 µM

## CC(=O)c1c(OCCN(C)C)cc2occc2c1OCCCCOc1ccccc1 [Example 25, 5-Acetyl-6-(2-dimethylamino-ethoxy)-4-(4-phenoxybutoxy)benzofuran]
  EC50: 0.6 µM

## CC(=O)c1c(OCCN2CCOCC2)c(OCCCc2ccc(F)cc2)c2occc2c1C [Example 47b, 5-Acetyl-7-(3-(4-fluorophenyl)propoxy)-4-methyl-6-(2-morpholinoethoxy)benzofuran]
  EC50: 0.074 µM

## CC(=O)c1c(OCCn2ccnn2)c(OCCCc2ccccc2)c2occc2c1C [Example 36, 1-[4-Methyl-7-(3-phenyl-propoxy)-6-(2-[1,2,3]triazol-1-yl-ethoxy)-benzofuran-5-yl]-ethanone]
  EC50: 0.122 µM

## CC(=O)c1c(O)c(OCCOc2ccc(F)cc2)c2occc2c1C [Example 43c, 5-Acetyl-7-(2-(4-fluorophenoxy)-ethoxy)-6-hydroxy-4-methylbenzofuran]
  EC50: 0.954 µM

## CC(=O)c1c(OCCc2ccccn2)c(OCCC(C)c2ccc(F)cc2)c2occc2c1C (stereo not shown) [Example 44d, 5-Acetyl-7-(3-[4-fluorophenyl]butoxy)-4-methyl-6-(2-pyridin-2-yl-ethoxy)benzofuran]
  EC50: 0.022 µM

## CC(=O)c1c(OCCNCCO)c(OCCCc2ccccc2)c2occc2c1C [Example 39, 5-Acetyl-6-(2-(2-Hydroxy-ethylamino)-ethoxy)-4-methyl-7-(3-phenylpropoxy)-benzofuran]
  EC50: 0.576 µM

## CC(=O)c1c(OCCn2ccnc2)c(OCCCc2ccccc2)c2occc2c1C [20 b)]
  EC50: 0.068 µM
